Consider 14 compounds from patent US20080275085A1, “Piperidine derivative and use thereof” (priority 2007, published 2008).

Counter-ions that a name gives are not always drawn.

Data set [1] concerns the target T1, substance P receptor (Homo sapiens, UniProt P25103).
T1 construct: The receptor was prepared from human lymphoblast cells (IM-9); endogenous in cells; host or cells: IM-9 human lymphoblast cells (membrane fraction, 100,000xG precipitate)
Nature of the data set: Radioligand receptor binding inhibitory activity (125I-BHSP binding, receptor from IM-9 cells). The note with it: receptor from human lymphoblast cells (IM-9); radioligand 125I-BHSP; 25° C., 30 min. The procedure: Radioligand Receptor Binding Inhibitory Activity (Binding Inhibitory Activity Using Receptor from Human Lymphoblast Cells (IM-9))
The method of M. A. Cascieri et al., “Molecular Pharmacology, vol. 42, p. 458 (1992)” was modified and used. The receptor was prepared from human lymphoblast cells (IM-9).
IM-9 cells (2×10^5 cells/mL) were inoculated and incubated for 3 days, which was then subjected to centrifugation for 10 min. at 500×G to give cell pellets. The obtained pellets were washed with PBS (GIBCO), disrupted in buffer A (50 mM tris.hydrochloric acid buffer (pH 7.4) containing 120 mM sodium chloride, 5 mM potassium chloride, 2 μg/mL chymostatin, 40 μg/mL bacitracin, 40 μg/mL APMSF, 1 mM ethylenediamine tetra acetic acid) using a polytron.homogenizer [manufactured by Kinematika, Germany], and centrifuged at 100,000×G for 40 min. The precipitated fraction was suspended in buffer B (50 mM Tris-HCl (pH 7.4), 0.02% bovine serum albumin, 2 μg/mL chymostatin, 40 μg/mL bacitracin, 40 μg/mL APMSF, 3 mM MgCl2), which was then cryopreserved (−80° C.) as a receptor specimen.
Buffer B (50 μL) was added to a 96 well microassay plate (CORNING). Thereto was added 50 μL of membrane preparation suspended in buffer B at 250 μg/mL. A measurement buffer (50 μL) containing 2% dimethyl sulfoxide was added to examine total binding; 4 μM unlabeled SP (50 μL) diluted with a measurement buffer containing 2% dimethyl sulfoxide was added to examine non-specific binding; and 50 μL of a test compound (containing 2% dimethyl sulfoxide) diluted with a measurement buffer was added to examine binding inhibitory activity of the test compound. In addition, […] ^125I-BHSP solution (50 μL) was added to each well.
After reaction at 25° C. for 30 min, the cells were rapidly filtered through a GF/C filter plate (PerkinElmer) using a cell harvester (manufactured by PerkinElmer) to quench the reaction, and washed 10 times with 250 μL of 50 mM tris-HCl buffer (pH 7.4) containing 0.02% bovine serum albumin. The GF/C filter plate was dried, MicroScinti 0 (20 μL) was added, and the radioactivity was measured with TopCount (manufactured by PerkinElmer). The GF/C filter plate was immersed in 0.3% polyethylene imine for one day before use.
Specific binding is a value obtained by subtracting nonspecific binding from total binding. The binding inhibitory activity of a test compound is shown by a ratio of a value obtained by subtracting a measurement value with addition of a test compound from the total binding, relative to specific binding.
The antagonistic activity of the compounds obtained in the Examples was determined as a concentration necessary for causing 50% inhibition (IC50 value) under the above-described conditions, and the results shown in Table 34 were obtained.
The radio ligand means substance P labeled with [^125I].

T1 sequence (P25103 whole entry): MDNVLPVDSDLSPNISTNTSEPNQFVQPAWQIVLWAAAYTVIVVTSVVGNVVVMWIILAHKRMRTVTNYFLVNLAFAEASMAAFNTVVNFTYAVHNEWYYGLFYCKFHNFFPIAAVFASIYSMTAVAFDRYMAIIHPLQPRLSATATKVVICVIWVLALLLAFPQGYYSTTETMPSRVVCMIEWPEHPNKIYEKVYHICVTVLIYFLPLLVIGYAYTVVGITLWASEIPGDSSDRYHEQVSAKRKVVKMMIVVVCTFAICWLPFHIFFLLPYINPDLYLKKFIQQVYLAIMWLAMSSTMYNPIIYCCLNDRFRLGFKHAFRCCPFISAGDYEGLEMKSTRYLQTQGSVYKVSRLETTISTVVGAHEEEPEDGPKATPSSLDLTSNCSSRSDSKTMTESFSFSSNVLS

Compound `Cc1cc(F)ccc1[C@@H]1CN(S(=O)(=O)N(C)C)CC[C@H]1C(=O)N(C)Cc1cc(C(F)(F)F)cc(C(F)(F)F)c1` (relative stereo) [Example 142, (3R*,4R*)—N-[3,5-bis(trifluoromethyl)benzyl]-1-[(dimethylamino)sulfonyl]-3-(4-fluoro-2-methylphenyl)-N-methylpiperidine-4-carboxamide] had a melting point of 142 to 144 °C. The compound also had an IC50 in data set [1] of 0.055 nM. In the same order, the values of `Cc1cc(F)ccc1[C@@H]1CN(C2=CC(=O)C(C)(C)CC2)CC[C@H]1C(=O)N(C)Cc1cc(C(F)(F)F)cc(C(F)(F)F)c1` (relative stereo) [Example 119, (3R*,4R*)—N-[3,5-bis(trifluoromethyl)benzyl]-1-(4,4-dimethyl-3-oxocyclohex-1-en-1-yl)-3-(4-fluoro-2-methylphenyl)-N-methylpiperidine-4-carboxamide] are 137 to 138 °C and 0.06 nM. Compound `Cc1cc(F)ccc1[C@H]1CN(S(=O)(=O)C2CC2)CC[C@@H]1C(=O)N(C)[C@@H](C)c1cc(C(F)(F)F)cc(C(F)(F)F)c1` [Example 162, (3S,4S)—N-{(1S)-1-[3,5-bis(trifluoromethyl)phenyl]ethyl}-1-(cyclopropylsulfonyl)-3-(4-fluoro-2-methylphenyl)-N-methylpiperidine-4-carboxamide] displayed a melting point of 154 to 156 °C. In data set [1], the IC50 stood at 0.081 nM. With `Cc1cc(F)ccc1[C@@H]1CN(C2=CC(=O)CC2)CC[C@H]1C(=O)N(C)Cc1cc(C(F)(F)F)cc(C(F)(F)F)c1` (relative stereo) [Example 118, (3R*,4R*)—N-[3,5-bis(trifluoromethyl)benzyl]-3-(4-fluoro-2-methylphenyl)-N-methyl-1-(3-oxocyclopent-1-en-1-yl)piperidine-4-carboxamide], the melting point was 192 to 193 °C. This compound also showed an IC50 in data set [1] of 0.06 nM.

The compound `Cc1cc(F)ccc1[C@H]1CN(CC(N)=O)CC[C@@H]1C(=O)N(C)[C@H](C)c1cc(C(F)(F)F)cc(C(F)(F)F)c1.Cl` (hydrate or solvate) registered a melting point of 133 to 139 °C. `CCOCCS(=O)(=O)N1CC[C@@H](C(=O)N(C)Cc2cc(C(F)(F)F)cc(C(F)(F)F)c2)[C@H](c2ccc(F)cc2C)C1` (relative stereo) [Example 138, (3R*,4R*)—N-[3,5-bis(trifluoromethyl)benzyl]-1-[(2-ethoxyethyl)sulfonyl]-3-(4-fluoro-2-methylphenyl)-N-methylpiperidine-4-carboxamide] had a melting point of 151 to 153 °C. For the same compound, the IC50 in data set [1] was found to be 0.078 nM.

`CCS(=O)(=O)N1CC[C@@H](C(=O)N(C)Cc2cc(C(F)(F)F)cc(C(F)(F)F)c2)[C@H](c2ccc(F)cc2C)C1` (relative stereo) [Example 132, (3R*,4R*)—N-[3,5-bis(trifluoromethyl)benzyl]-1-(ethylsulfonyl)-3-(4-fluoro-2-methylphenyl)-N-methylpiperidine-4-carboxamide] registered a melting point of 170 to 171 °C. The compound also had an IC50 in data set [1] of 0.04 nM. With `Cc1cc(F)ccc1[C@H]1CN(CC(N)=O)CC[C@@H]1C(=O)N(C)[C@@H](C)c1cc(C(F)(F)F)cc(C(F)(F)F)c1` [Example 156, (3S,4S)-1-(2-amino-2-oxoethyl)-N-{(1S)-1-[3,5-bis(trifluoromethyl)phenyl]ethyl}-3-(4-fluoro-2-methylphenyl)-N-methylpiperidine-4-carboxamide], the melting point lay in the range of 161 to 164 °C. Also, the IC50 in data set [1] was determined as 0.024 nM. `Cc1cc(F)ccc1[C@@H]1CN(S(=O)(=O)CCN2CCOCC2)CC[C@H]1C(=O)N(C)Cc1cc(C(F)(F)F)cc(C(F)(F)F)c1` (relative stereo) (as salt: hydrochloride) [Example 139, (3R*,4R*)—N-[3,5-bis(trifluoromethyl)benzyl]-3-(4-fluoro-2-methylphenyl)-N-methyl-1-[(2-morpholin-4-ylethyl)sulfonyl]piperidine-4-carboxamide monohydrochloride] had a melting point of 196 to 198 °C.

As for `Cc1cc(F)ccc1[C@@H]1CN(C2CCN(C(N)=O)CC2)CC[C@H]1C(=O)N(C)Cc1cc(C(F)(F)F)cc(C(F)(F)F)c1` (relative stereo) (as salt: hydrochloride) (hydrate or solvate) [Example 109, (3R*,4R*)—N^4-[3,5-bis(trifluoromethyl)benzyl]-3-(4-fluoro-2-methylphenyl)-N^4-methyl-1,4′-bipiperidine-1′,4-dicarboxamide monohydrochloride], the melting point was 175 to 178 °C. The compound `Cc1cc(F)ccc1[C@@H]1CN(S(=O)(=O)c2ccccn2)CC[C@H]1C(=O)N(C)Cc1cc(C(F)(F)F)cc(C(F)(F)F)c1` (relative stereo) [Example 144, (3R*,4R*)—N-[3,5-bis(trifluoromethyl)benzyl]-3-(4-fluoro-2-methylphenyl)-N-methyl-1-(pyridin-2-ylsulfonyl)piperidine-4-carboxamide] gave a melting point of 187 to 189 °C. The compound further registered an IC50 in data set [1] of 0.045 nM. With `Cc1ccccc1[C@@H]1CN(C(=O)C2CCN(C(=O)CO)CC2)CC[C@H]1C(=O)N(C)Cc1cc(C(F)(F)F)cc(C(F)(F)F)c1` (relative stereo) [Example 16, (3R*,4R*)—N-[3,5-bis(trifluoromethyl)benzyl]-1-[(1-glycoloylpiperidin-4-yl)carbonyl]-N-methyl-3-(2-methylphenyl)piperidine-4-carboxamide], the melting point was in the range of 173 to 174 °C.

As to `Cc1cc(F)ccc1[C@@H]1CN(CCC(C)(C)O)CC[C@H]1C(=O)N(C)Cc1cc(C(F)(F)F)cc(C(F)(F)F)c1` (relative stereo) (as salt: hydrochloride) (hydrate or solvate) [Example 123, (3R*,4R*)—N-[3,5-bis(trifluoromethyl)benzyl]-3-(4-fluoro-2-methylphenyl)-1-(3-hydroxy-3-methylbutyl)-N-methylpiperidine-4-carboxamide monohydrochloride], the melting point is 126 to 128 °C. Compound `Cc1cc(F)ccc1[C@@H]1CN(CC(=O)NC2CC2)CC[C@H]1C(=O)N(C)Cc1cc(C(F)(F)F)cc(C(F)(F)F)c1` (relative stereo) (as salt: hydrochloride) [Example 103, (3R*,4R*)—N-[3,5-bis(trifluoromethyl)benzyl]-1-[2-(cyclopropylamino)-2-oxoethyl]-3-(4-fluoro-2-methylphenyl)-N-methylpiperidine-4-carboxamide monohydrochloride] came in with a melting point of 210 to 214 °C.
